We go through four compounds from PMC8550792, “Evolution of kinase polypharmacology across HSP90 drug discovery” (Cell Chemical Biology, 2021).

What all share (test): biochemical
What all share (type): biochemical

In experiment [1] the target is T1, 382 unique human kinases (Homo sapiens, UniProt Q15375).
T1 construct: purchased Reaction Biology (HotSpot contract assay)
The following applies: kinase EPHA7, compound 10 uM; for remaining activity at 10 µM: read-out: % Enzyme Activity (relative to DMSO controls).

Experiment [2] concerns the target T2, 382 unique human kinases (Homo sapiens, UniProt Q15759).
T2 construct: purchased Reaction Biology (HotSpot contract assay)
The following applies: kinase P38b/MAPK11, compound 10 uM; for remaining activity at 10 µM: read-out: % Enzyme Activity (relative to DMSO controls).

Experiment [3] deals with T3, 382 unique human kinases (Homo sapiens, UniProt Q86Z02).
T3 construct: purchased Reaction Biology (HotSpot contract assay)
To be noted: HIPK1, compound at 10 uM, duplicate values; for remaining activity at 10 µM: read-out: % Enzyme Activity (relative to DMSO controls).

For experiment [4], the target named is T4, 382 unique human kinases (Homo sapiens, UniProt Q96NX5).
T4 construct: purchased Reaction Biology (HotSpot contract assay)
T4 sequence (Q96NX5 whole entry): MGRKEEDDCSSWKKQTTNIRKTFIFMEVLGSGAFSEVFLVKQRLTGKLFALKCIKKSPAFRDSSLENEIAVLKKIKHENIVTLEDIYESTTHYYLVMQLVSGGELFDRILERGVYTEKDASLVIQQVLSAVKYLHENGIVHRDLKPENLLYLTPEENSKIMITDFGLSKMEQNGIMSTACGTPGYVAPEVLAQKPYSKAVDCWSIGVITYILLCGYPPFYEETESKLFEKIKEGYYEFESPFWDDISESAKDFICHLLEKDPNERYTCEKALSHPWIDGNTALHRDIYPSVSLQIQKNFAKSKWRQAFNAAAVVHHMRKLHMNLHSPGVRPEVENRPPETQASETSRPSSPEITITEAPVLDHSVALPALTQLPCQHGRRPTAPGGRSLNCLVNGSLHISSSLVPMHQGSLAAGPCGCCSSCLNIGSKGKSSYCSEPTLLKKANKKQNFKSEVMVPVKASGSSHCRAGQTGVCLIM
To be noted: kinase CAMK1g, compound 10 uM; for remaining activity at 10 µM: read-out: % Enzyme Activity (relative to DMSO controls).

Experiment [5] deals with T5, 382 unique human kinases (Homo sapiens, UniProt Q9UBS0).
T5 construct: purchased Reaction Biology (HotSpot contract assay)
To be noted: kinase p70S6Kb/RPS6KB2, compound 10 uM; for remaining activity at 10 µM: read-out: % Enzyme Activity (relative to DMSO controls).

In experiment [6] the target is T6, 382 unique human kinases (Homo sapiens, UniProt Q02763, R849W).
T6 construct: purchased Reaction Biology (HotSpot contract assay)
To be noted: kinase TIE2 (R849W), compound 10 uM; for remaining activity at 10 µM: read-out: % Enzyme Activity (relative to DMSO controls).

For experiment [7], the target named is T7, 382 unique human kinases (Homo sapiens, UniProt P21802, N549H).
T7 construct: purchased Reaction Biology (HotSpot contract assay)
T7 sequence (P21802 22-821 N549H): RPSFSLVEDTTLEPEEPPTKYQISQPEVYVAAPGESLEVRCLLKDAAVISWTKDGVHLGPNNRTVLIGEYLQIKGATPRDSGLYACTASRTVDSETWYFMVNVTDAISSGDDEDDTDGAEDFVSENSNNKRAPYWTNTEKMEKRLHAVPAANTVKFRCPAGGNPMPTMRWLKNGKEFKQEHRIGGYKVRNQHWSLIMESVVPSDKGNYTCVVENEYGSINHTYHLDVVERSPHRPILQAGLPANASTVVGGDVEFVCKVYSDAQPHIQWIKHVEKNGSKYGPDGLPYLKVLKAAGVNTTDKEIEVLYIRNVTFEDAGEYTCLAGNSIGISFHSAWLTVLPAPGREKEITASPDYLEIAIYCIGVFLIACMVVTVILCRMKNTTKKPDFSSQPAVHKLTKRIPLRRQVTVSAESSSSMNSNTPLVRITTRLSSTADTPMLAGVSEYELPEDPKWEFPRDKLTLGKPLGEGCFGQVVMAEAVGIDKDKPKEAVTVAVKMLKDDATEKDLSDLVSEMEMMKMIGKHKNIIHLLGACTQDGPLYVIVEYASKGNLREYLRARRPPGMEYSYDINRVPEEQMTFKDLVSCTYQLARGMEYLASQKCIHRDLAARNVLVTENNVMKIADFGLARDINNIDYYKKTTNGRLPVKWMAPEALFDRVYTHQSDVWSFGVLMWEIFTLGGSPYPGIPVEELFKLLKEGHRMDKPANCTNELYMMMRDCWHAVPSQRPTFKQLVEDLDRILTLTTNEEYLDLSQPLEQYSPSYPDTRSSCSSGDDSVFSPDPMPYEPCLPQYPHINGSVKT
To be noted: kinase FGFR2 (N549H), compound 10 uM; for remaining activity at 10 µM: read-out: % Enzyme Activity (relative to DMSO controls).

The target of experiment [8] is T8, 382 unique human kinases (Homo sapiens, UniProt P31751).
T8 construct: purchased Reaction Biology (HotSpot contract assay)
T8 sequence (P31751 whole entry): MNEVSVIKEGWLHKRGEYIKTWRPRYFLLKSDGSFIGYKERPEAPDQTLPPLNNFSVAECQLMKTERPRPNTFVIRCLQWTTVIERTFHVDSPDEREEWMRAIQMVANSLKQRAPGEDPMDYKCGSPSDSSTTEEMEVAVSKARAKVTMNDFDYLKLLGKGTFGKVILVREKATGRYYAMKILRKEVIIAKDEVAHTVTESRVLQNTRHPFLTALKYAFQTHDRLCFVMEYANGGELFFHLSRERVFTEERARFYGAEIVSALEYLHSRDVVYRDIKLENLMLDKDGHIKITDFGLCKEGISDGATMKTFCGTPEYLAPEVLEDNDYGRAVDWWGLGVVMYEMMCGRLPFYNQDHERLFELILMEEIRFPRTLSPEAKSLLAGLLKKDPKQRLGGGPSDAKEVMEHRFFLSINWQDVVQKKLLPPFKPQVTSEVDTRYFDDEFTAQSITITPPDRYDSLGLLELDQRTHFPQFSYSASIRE
The following applies: kinase AKT2, compound 10 uM; for remaining activity at 10 µM: read-out: % Enzyme Activity (relative to DMSO controls).

For experiment [9], the target named is T9, 382 unique human kinases (Homo sapiens, UniProt Q8N568).
T9 construct: purchased Reaction Biology (HotSpot contract assay)
T9 sequence (Q8N568 whole entry): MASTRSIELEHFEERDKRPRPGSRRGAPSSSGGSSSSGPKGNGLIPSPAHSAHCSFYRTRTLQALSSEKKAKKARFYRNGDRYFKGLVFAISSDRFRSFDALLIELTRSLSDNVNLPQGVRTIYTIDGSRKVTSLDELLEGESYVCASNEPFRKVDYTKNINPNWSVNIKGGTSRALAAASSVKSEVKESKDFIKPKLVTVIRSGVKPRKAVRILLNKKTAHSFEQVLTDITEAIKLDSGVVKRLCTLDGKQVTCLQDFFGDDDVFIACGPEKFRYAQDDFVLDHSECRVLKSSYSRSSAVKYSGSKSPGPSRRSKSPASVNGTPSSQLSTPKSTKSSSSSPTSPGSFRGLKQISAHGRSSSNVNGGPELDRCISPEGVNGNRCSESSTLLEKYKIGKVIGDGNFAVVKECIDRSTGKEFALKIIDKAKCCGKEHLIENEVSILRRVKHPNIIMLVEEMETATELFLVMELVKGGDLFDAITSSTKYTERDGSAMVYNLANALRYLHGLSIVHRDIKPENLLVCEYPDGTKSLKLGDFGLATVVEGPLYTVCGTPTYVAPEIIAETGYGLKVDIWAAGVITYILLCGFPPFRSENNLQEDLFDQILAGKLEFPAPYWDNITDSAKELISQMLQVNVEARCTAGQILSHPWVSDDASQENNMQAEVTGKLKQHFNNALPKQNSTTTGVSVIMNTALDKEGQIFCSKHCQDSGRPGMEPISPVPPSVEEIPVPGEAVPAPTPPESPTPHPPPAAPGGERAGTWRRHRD
To be noted: DCAMKL2, 10 uM; for remaining activity at 10 µM: read-out: % Enzyme Activity (relative to DMSO controls).

For experiment [10], the target named is T10, 382 unique human kinases (Homo sapiens, UniProt Q96PY6).
T10 construct: purchased Reaction Biology (HotSpot contract assay)
T10 sequence (Q96PY6 1-1258): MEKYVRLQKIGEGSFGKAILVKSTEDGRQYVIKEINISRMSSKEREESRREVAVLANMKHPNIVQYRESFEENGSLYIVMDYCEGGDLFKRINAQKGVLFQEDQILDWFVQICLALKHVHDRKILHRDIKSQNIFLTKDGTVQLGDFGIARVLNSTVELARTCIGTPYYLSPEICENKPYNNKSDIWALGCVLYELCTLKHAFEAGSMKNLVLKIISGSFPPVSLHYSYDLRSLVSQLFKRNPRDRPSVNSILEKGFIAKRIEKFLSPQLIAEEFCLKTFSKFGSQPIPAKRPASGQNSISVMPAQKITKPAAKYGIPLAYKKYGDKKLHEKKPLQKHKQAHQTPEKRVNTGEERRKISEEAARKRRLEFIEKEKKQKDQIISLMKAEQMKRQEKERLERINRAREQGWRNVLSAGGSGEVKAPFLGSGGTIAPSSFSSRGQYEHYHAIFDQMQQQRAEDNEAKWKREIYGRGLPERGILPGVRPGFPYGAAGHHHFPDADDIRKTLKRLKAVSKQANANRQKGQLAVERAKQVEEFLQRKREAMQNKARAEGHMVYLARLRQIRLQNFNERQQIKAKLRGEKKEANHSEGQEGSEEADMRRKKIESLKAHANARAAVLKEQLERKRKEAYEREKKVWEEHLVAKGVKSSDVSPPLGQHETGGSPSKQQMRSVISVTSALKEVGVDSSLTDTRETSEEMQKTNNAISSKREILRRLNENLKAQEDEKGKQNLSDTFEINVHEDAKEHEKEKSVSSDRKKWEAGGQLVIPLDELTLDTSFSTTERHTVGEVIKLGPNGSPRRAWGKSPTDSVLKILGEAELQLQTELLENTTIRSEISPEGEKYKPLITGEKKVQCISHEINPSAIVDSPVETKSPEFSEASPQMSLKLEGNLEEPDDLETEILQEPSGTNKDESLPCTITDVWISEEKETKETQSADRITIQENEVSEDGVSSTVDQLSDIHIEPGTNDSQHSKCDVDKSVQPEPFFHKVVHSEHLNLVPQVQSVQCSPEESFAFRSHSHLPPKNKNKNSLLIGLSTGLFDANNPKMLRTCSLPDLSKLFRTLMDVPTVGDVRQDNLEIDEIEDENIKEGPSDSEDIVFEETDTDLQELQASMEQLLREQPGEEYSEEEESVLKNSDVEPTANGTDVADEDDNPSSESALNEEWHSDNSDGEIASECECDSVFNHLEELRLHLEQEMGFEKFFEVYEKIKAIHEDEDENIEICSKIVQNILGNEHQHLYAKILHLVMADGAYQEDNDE
The following applies: NEK1, 10 uM; for remaining activity at 10 µM: read-out: % Enzyme Activity (relative to DMSO controls).

Experiment [11] concerns the target T11, 382 unique human kinases (Homo sapiens, UniProt Q86UE8).
T11 construct: purchased Reaction Biology (HotSpot contract assay)
The following applies: TLK2, 10 uM; for remaining activity at 10 µM: read-out: % Enzyme Activity (relative to DMSO controls).

For experiment [12], the target named is T12, 382 unique human kinases (Homo sapiens, UniProt Q15119).
T12 construct: purchased Reaction Biology (HotSpot contract assay)
The following applies: PDK2/PDHK2, [ATP] 15 µM.

In experiment [13] the target is T13, 382 unique human kinases (Homo sapiens, UniProt P49761).
T13 construct: purchased Reaction Biology (HotSpot contract assay)
T13 sequence (P49761 whole entry): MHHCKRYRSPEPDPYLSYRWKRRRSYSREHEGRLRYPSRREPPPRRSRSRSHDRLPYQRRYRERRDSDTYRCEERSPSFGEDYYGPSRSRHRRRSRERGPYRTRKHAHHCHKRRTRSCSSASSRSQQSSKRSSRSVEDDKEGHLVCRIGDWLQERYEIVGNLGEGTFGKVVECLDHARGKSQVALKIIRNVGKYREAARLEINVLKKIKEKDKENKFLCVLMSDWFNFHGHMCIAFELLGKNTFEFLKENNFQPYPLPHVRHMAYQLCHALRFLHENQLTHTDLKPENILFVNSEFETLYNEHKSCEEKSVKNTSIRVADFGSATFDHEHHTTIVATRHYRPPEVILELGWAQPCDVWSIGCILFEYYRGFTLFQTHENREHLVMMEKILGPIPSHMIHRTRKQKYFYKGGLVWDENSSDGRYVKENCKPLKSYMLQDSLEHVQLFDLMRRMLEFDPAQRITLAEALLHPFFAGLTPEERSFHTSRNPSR
To be noted: CLK3, [ATP] 30 µM, compound 10 uM; for remaining activity at 10 µM: read-out: % Enzyme Activity (relative to DMSO controls).

Experiment [14] addresses T14, 382 unique human kinases (Homo sapiens, UniProt P00519, Y253F).
T14 construct: purchased Reaction Biology (HotSpot contract assay)
The following applies: ABL1 (Y253F), [ATP] 15 µM, compound 10 uM; for remaining activity at 10 µM: read-out: % Enzyme Activity (relative to DMSO controls).

Experiment [15] deals with T15, 382 unique human kinases (Homo sapiens, UniProt P31749, E17K).
T15 construct: purchased Reaction Biology (HotSpot contract assay)
T15 sequence (P31749 whole entry E17K): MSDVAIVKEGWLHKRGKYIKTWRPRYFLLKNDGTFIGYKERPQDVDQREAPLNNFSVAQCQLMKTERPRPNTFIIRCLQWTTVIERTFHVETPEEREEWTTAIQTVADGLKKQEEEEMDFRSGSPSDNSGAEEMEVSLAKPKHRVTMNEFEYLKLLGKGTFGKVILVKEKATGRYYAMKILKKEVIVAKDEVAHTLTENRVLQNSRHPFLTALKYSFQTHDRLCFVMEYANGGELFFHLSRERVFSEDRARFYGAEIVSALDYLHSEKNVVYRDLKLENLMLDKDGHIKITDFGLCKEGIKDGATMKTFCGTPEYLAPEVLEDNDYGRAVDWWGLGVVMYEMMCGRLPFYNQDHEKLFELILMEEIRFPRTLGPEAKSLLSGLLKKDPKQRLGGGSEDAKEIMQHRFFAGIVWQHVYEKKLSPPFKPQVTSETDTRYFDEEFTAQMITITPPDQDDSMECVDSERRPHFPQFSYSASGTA
The following applies: AKT1 (E17K), 10 uM; for remaining activity at 10 µM: read-out: % Enzyme Activity (relative to DMSO controls).

The target in experiment [16] is T16, 382 unique human kinases (Homo sapiens, UniProt Q9NYL2).
T16 construct: purchased Reaction Biology (HotSpot contract assay)
To be noted: ZAK/MLTK, [ATP] 50 µM, compound 10 uM; for remaining activity at 10 µM: read-out: % Enzyme Activity (relative to DMSO controls).

For experiment [17], the target named is T17, 382 unique human kinases (Homo sapiens, UniProt Q9P1W9).
T17 construct: purchased Reaction Biology (HotSpot contract assay)
T17 sequence (Q9P1W9 whole entry): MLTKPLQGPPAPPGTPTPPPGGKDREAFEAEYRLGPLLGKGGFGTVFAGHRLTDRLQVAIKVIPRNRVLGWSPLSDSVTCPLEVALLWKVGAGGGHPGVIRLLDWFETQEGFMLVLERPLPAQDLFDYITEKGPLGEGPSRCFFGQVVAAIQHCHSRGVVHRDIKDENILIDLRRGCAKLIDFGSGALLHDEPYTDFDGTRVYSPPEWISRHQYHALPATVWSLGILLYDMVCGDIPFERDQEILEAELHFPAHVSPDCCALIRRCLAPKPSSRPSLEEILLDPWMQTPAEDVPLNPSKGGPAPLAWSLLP
The following applies: PIM2, [ATP] 20 µM, compound 10 uM; for remaining activity at 10 µM: read-out: % Enzyme Activity (relative to DMSO controls).

The mark [18] stands for this setting: compound 10 uM, read-out: % Enzyme Activity (relative to DMSO controls).

T2 sequence (Q15759 whole entry): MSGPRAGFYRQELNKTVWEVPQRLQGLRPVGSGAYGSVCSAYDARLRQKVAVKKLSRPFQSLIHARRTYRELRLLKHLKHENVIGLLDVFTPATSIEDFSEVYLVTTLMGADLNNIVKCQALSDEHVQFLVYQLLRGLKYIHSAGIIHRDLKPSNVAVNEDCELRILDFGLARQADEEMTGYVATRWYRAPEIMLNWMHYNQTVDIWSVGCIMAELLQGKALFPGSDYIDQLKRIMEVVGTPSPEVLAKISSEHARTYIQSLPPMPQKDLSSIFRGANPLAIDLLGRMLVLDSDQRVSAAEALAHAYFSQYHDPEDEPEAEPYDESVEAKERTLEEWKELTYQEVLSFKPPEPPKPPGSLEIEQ
T11 sequence (Q86UE8 whole entry): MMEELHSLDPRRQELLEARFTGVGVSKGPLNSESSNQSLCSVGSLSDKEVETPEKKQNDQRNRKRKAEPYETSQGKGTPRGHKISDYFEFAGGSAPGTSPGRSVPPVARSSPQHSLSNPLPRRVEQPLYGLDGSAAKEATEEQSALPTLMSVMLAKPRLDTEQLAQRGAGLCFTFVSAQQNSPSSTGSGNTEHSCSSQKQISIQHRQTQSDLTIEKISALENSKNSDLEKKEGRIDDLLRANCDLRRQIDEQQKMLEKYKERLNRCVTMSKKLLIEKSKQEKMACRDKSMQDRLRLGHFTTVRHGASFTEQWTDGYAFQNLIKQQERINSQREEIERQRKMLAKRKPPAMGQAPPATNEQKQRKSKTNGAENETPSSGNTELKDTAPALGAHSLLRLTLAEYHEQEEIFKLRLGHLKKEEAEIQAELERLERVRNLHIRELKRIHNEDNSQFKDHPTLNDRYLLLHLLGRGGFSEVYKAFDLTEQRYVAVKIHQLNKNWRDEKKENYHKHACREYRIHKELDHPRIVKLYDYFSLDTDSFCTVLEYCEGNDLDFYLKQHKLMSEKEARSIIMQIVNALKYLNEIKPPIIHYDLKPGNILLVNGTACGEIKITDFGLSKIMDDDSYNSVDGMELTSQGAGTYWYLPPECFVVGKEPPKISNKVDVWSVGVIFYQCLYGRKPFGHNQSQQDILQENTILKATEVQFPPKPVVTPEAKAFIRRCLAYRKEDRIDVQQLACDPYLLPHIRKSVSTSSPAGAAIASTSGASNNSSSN

On to `CC(C)c1cc(-c2n[nH]c(=O)n2-c2ccc3c(ccn3C)c2)c(O)cc1O` [Ganetespib (STA9090)], for which the remaining activity at 10 µM came to 86.7% at 382 unique human kinases [1]; 108% on 382 unique human kinases [2]; 133% on 382 unique human kinases [3]; 86.8% on 382 unique human kinases [4]; 96.6% at 382 unique human kinases [5]; 83.1% on 382 unique human kinases [6]. Moreover, the remaining activity at 10 µM at 382 unique human kinases [7] is 79.3%; at 382 unique human kinases [8], 83.9%.
As to `CC(C)c1cc(-c2n[nH]c(=O)n2-c2ccc3c(ccn3C)c2)c(O)cc1O` [Ganetespib], the remaining activity at 10 µM on 382 unique human kinases [9] was 96.7%; at 382 unique human kinases [10] it was 95.7%; on 382 unique human kinases [11], 91.9%; at 382 unique human kinases [12] (setting [18]) it was 11.2%; on 382 unique human kinases [13] it was 39%; at 382 unique human kinases [14] it was 3.72%. For the same compound, the remaining activity at 10 µM at 382 unique human kinases [15] turned out to be 94.2%; at 382 unique human kinases [16], 48.1%; on 382 unique human kinases [17], 28.8%. Besides, the remaining activity at 1 µM on 382 unique human kinases [12] (compound 1 uM, read-out: % Enzyme Activity (relative to DMSO controls)) amounted to 41.9%.
For the compound `CCNC(=O)c1noc(-c2cc(C(C)C)c(O)cc2O)c1-c1ccc(CN2CCOCC2)cc1` [Luminespib (AUY-922)], the “% Enzyme Activity (relative to DMSO controls)” value at 382 unique human kinases [1] is listed as 95.91%; on 382 unique human kinases [2], 82.81%; at 382 unique human kinases [3], 102.12%; on 382 unique human kinases [4], 93.84%; on 382 unique human kinases [5] it was 108.19%; at 382 unique human kinases [6] it was 89.68%. For the same compound, the “% Enzyme Activity (relative to DMSO controls)” value was determined as 106.42% at 382 unique human kinases [7] and 96.69% at 382 unique human kinases [8]. Moreover, the remaining activity at 10 µM at 382 unique human kinases [1] is 97.9%; on 382 unique human kinases [2] it was 86.3%; at 382 unique human kinases [3], 104%; on 382 unique human kinases [4], 97.8%; on 382 unique human kinases [5], 113%; at 382 unique human kinases [6], 90.9%. The values for the remaining activity at 10 µM at 382 unique human kinases [7] and at 382 unique human kinases [8] were 107% and 97.3%, respectively.
As for `CCNC(=O)c1noc(-c2cc(C(C)C)c(O)cc2O)c1-c1ccc(CN2CCOCC2)cc1` [Luminespib], the “% Enzyme Activity (relative to DMSO controls)” value was 96.30% at 382 unique human kinases [9]; 102.76% on 382 unique human kinases [10]; 97.34% on 382 unique human kinases [11]; 20.58% at 382 unique human kinases [12] (compound 10 uM); 45.99% on 382 unique human kinases [13]; 4.48% at 382 unique human kinases [14]. The “% Enzyme Activity (relative to DMSO controls)” value at 382 unique human kinases [15] is on record as 93.12%; at 382 unique human kinases [16], 94.35%; on 382 unique human kinases [17], 103.60%. Besides, the remaining activity at 10 µM at 382 unique human kinases [9] was 97.8%; at 382 unique human kinases [10], 110%; at 382 unique human kinases [11], 98.7%; at 382 unique human kinases [12] (setting [18]) it was 22.4%; at 382 unique human kinases [13] it was 46.6%; on 382 unique human kinases [14] it was 5.44%. Besides, the remaining activity at 10 µM is 101% on 382 unique human kinases [15], 99.3% on 382 unique human kinases [16] and 106% at 382 unique human kinases [17].
